Source: ChEMBL document CHEMBL4706545, “Antiproliferative effect of mitochondria-targeting allobetulin 1,2,3-triazolium salt derivatives and their mechanism of inducing apoptosis of cancer cells” (Eur J Med Chem, 2020)
Active and inactive are the calls of the source. No cut-off for these calls is given here.

How the values were obtained:
[1] = system: ECa-109 cell line; assay: Induction of apoptosis in human ECa-109 cells assessed as late apoptotic cells at 1 uM incubated for 48 hrs by annexin-V-FITC and PI staining based fluorescence microscopic analysis (reference value: 2.01 %); format: functional
[2] = Selectivity index, ratio of IC50 for cytotoxicity against human HL7702 cells to IC50 for cytotoxicity against human ECa-109 cells
[3] = system: ECa-109 cell line; assay: Induction of ROS-mediated apoptosis in human ECa-109 cells assessed as viable cells at 4 uM incubated for 48 hrs by annexin V-PE and 7-AAD staining based flow cytometry analysis (reference value: 92.7 %); format: functional; conditions: read-out: Activity
[4] = system: ECa-109 cell line; assay: Induction of apoptosis in human ECa-109 cells assessed as downregulation of Bcl-2 incubated for 48 hrs by Western blot analysis; format: functional, cell-based; conditions: dose 1-4 µM
[5] = system: ECa-109 cell line; assay: Induction of ROS-mediated apoptosis in human ECa-109 cells assessed as late apoptotic cells at 4 uM incubated for 48 hrs by annexin V-PE and 7-AAD staining based flow cytometry analysis (reference value: 3.89 %); format: functional
[6] = system: ECa-109 cell line; assay: Induction of ROS-mediated apoptosis in human ECa-109 cells assessed as necrotic cells at 1 uM incubated for 48 hrs in presence of NAC by annexin V-PE and 7-AAD staining based flow cytometry analysis (reference value: 1.09 %); format: functional
[7] = system: ECa-109 cell line; assay: Induction of apoptosis in human ECa-109 cells assessed as late apoptotic cells at 4 uM incubated for 48 hrs by annexin-V-FITC and PI staining based fluorescence microscopic analysis (reference value: 2.01 %); format: functional
[8] = system: ECa-109 cell line; assay: Induction of apoptosis in human ECa-109 cells assessed as early apoptotic cells at 2 uM incubated for 48 hrs by annexin-V-FITC and PI staining based fluorescence microscopic analysis (reference value: 0.971 %); format: functional
[9] = system: ECa-109 cell line; assay: Induction of ROS-mediated apoptosis in human ECa-109 cells assessed as necrotic cells at 4 uM incubated for 48 hrs by annexin V-PE and 7-AAD staining based flow cytometry analysis (reference value: 0.729 %); format: functional
[10] = system: ECa-109 cell line; assay: Induction of apoptosis in human ECa-109 cells assessed as necrotic cells at 2 uM incubated for 48 hrs by annexin-V-FITC and PI staining based fluorescence microscopic analysis (reference value: 1.19 %); format: functional
[11] = system: ECa-109 cell line; assay: Induction of ROS-mediated apoptosis in human ECa-109 cells assessed as viable cells at 1 uM incubated for 48 hrs by annexin V-PE and 7-AAD staining based flow cytometry analysis (reference value: 92.7 %); format: functional; conditions: read-out: Activity
[12] = system: ECa-109 cell line; assay: Induction of ROS-mediated apoptosis in human ECa-109 cells assessed as early apoptotic cells at 2 uM incubated for 48 hrs in presence of NAC by annexin V-PE and 7-AAD staining based flow cytometry analysis (reference value: 1.90 %); format: functional
[13] = system: ECa-109 cell line; assay: Induction of ROS-mediated apoptosis in human ECa-109 cells assessed as early apoptotic cells at 1 uM incubated for 48 hrs in presence of NAC by annexin V-PE and 7-AAD staining based flow cytometry analysis (reference value: 1.90 %); format: functional
[14] = system: ECa-109 cell line; assay: Induction of cell cycle arrest in human ECa-109 cells assessed as accumulation in G2/M phase at 4 uM incubated for 48 hrs by PI staining based flow cytometry analysis (reference value: 8.39 %); format: functional
[15] = system: ECa-109 cell line; assay: Induction of ROS-mediated apoptosis in human ECa-109 cells assessed as late apoptotic cells at 2 uM incubated for 48 hrs in presence of NAC by annexin V-PE and 7-AAD staining based flow cytometry analysis (reference value: 2.98 %); format: functional
[16] = system: SGC-7901; assay: Induction of ROS-mediated apoptosis in human SGC-7901 cells assessed as necrotic cells at 2 uM incubated for 48 hrs in presence of NAC by annexin V-PE and 7-AAD staining based flow cytometry analysis (reference value: 0.623 %); format: functional
[17] = system: SGC-7901; assay: Induction of apoptosis in human SGC-7901 cells assessed as necrotic cells at 1 uM incubated for 48 hrs by annexin-V-FITC and PI staining based fluorescence microscopic analysis (reference value: 1.03 %); format: functional
[18] = system: SGC-7901; assay: Induction of apoptosis in human SGC-7901 cells assessed as upregulation of Bax incubated for 48 hrs by Western blot analysis; format: functional, cell-based; conditions: dose 1-4 µM
[19] = system: SGC-7901; assay: Induction of cell cycle arrest in human SGC-7901 cells assessed as accumulation in G2/M phase at 4 uM incubated for 48 hrs by PI staining based flow cytometry analysis (reference value: 11.48 %); format: functional
[20] = system: SGC-7901; assay: Induction of ROS-mediated apoptosis in human SGC-7901 cells assessed as early apoptotic cells at 2 uM incubated for 48 hrs in presence of NAC by annexin V-PE and 7-AAD staining based flow cytometry analysis (reference value: 1.15 %); format: functional
[21] = system: SGC-7901; assay: Induction of ROS-mediated apoptosis in human SGC-7901 cells assessed as early apoptotic cells at 4 uM incubated for 48 hrs in presence of NAC by annexin V-PE and 7-AAD staining based flow cytometry analysis (reference value: 1.15 %); format: functional
[22] = system: SGC-7901; assay: Induction of apoptosis in human SGC-7901 cells assessed as decrease in caspase-8 incubated for 48 hrs by Western blot analysis; format: functional, cell-based; conditions: dose 1-4 µM
[23] = system: SGC-7901; assay: Induction of apoptosis in human SGC-7901 cells assessed as late apoptotic cells at 2 uM incubated for 48 hrs by annexin-V-FITC and PI staining based fluorescence microscopic analysis (reference value: 3.87 %); format: functional
[24] = system: SGC-7901; assay: Induction of ROS-mediated apoptosis in human SGC-7901 cells assessed as early apoptotic cells at 1 uM incubated for 48 hrs by annexin V-PE and 7-AAD staining based flow cytometry analysis (reference value: 1.89 %); format: functional
[25] = system: ECa-109 cell line; assay: Induction of apoptosis in human ECa-109 cells assessed as decrease in PARP incubated for 48 hrs by Western blot analysis; format: functional, cell-based; conditions: dose 1-4 µM
[26] = system: SGC-7901; assay: Induction of cell cycle arrest in human SGC-7901 cells assessed as accumulation in S phase at 1 uM incubated for 48 hrs by PI staining based flow cytometry analysis (reference value: 31.13 %); format: functional
[27] = system: SGC-7901; assay: Induction of apoptosis in human SGC-7901 cells assessed as concentrated chromatin at 1 to 4 uM incubated for 48 hrs by Hoechst staining based fluorescence microscopic analysis; format: functional, cell-based; conditions: dose 1-4 µM
[28] = system: SGC-7901; assay: Induction of ROS-mediated apoptosis in human SGC-7901 cells assessed as necrotic cells at 2 uM incubated for 48 hrs by annexin V-PE and 7-AAD staining based flow cytometry analysis (reference value: 0.733 %); format: functional
[29] = system: SGC-7901; assay: Induction of ROS generation in human SGC-7901 cells incubated for 48 hrs by DCFH-DA staining based fluorescence microscopic analysis; format: functional, cell-based; conditions: dose 1-4 µM
[30] = system: SGC-7901; assay: Induction of apoptosis in human SGC-7901 cells assessed as early apoptotic cells at 4 uM incubated for 48 hrs by annexin-V-FITC and PI staining based fluorescence microscopic analysis (reference value: 1.87 %); format: functional
[31] = system: SGC-7901; assay: Induction of apoptosis in human SGC-7901 cells assessed as viable cells at 2 uM incubated for 48 hrs by annexin-V-FITC and PI staining based fluorescence microscopic analysis (reference value: 93.8 %); format: functional; conditions: read-out: Activity
[32] = system: SGC-7901; assay: Induction of apoptosis in human SGC-7901 cells assessed as late apoptotic cells at 1 uM incubated for 48 hrs by annexin-V-FITC and PI staining based fluorescence microscopic analysis (reference value: 3.87 %); format: functional

Q: For COc1ccccc1Cn1n[n+](C)c2c1C(C)(C)[C@@H]1CC[C@]3(C)[C@H](CC[C@@H]4[C@H]5[C@H]6OC[C@@]5(CCC6(C)C)CC[C@]43C)[C@@]1(C)C2.[I-], which Activity [1] is on record?
A: 12.9%

Q: And the “Ratio IC50” value [2]?
A: 1.53

Q: And the viability at 4 µM [3]?
A: 0.811%

Q: And the Activity [4]?
A: Dose-dependent effect

Q: And the Activity [5]?
A: 95%

Q: What about the Activity [6] of the same compound?
A: 2.07%

Q: What about the Activity [7] of the same compound?
A: 92.2%

Q: And the Activity [8]?
A: 20.5%

Q: And the Activity [9]?
A: 2.19%

Q: And the Activity [10]?
A: 1.32%

Q: And the viability at 1 µM [11]?
A: 66.9%

Q: What about the Activity [12] of the same compound?
A: 10.1%

Q: What about the Activity [13] of the same compound?
A: 8.01%

Q: What about the Activity [14] of the same compound?
A: 22.73%

Q: What about the Activity [15] of the same compound?
A: 18.2%

Q: Which Activity [16] does the source give for C[n+]1nn(Cc2c(F)cccc2Cl)c2c1C[C@]1(C)[C@H]3CC[C@@H]4[C@H]5[C@H]6OC[C@@]5(CCC6(C)C)CC[C@@]4(C)[C@]3(C)CC[C@H]1C2(C)C.[I-] here?
A: 0.637%

Q: What about the Activity [17] of the same compound?
A: 1.56%

Q: What about the Activity [18] of the same compound?
A: Dose-dependent effect

Q: And the Activity [19]?
A: 18.35%

Q: What about the Activity [20] of the same compound?
A: 19.5%

Q: What about the Activity [21] of the same compound?
A: 4.28%

Q: What about the Activity [22] of the same compound?
A: Dose-dependent effect

Q: And the Activity [23]?
A: 8.46%

Q: What about the Activity [24] of the same compound?
A: 13.7%

Q: What about the Activity [25] of the same compound?
A: Dose-dependent effect

Q: And the Activity [26]?
A: 14.19%

Q: What about the Activity [27] of the same compound?
A: Active

Q: What about the Activity [28] of the same compound?
A: 0.956%

Q: And the Activity [29]?
A: Dose-dependent effect

Q: What about the Activity [30] of the same compound?
A: 2.07%

Q: What about the viability at 2 µM [31] of the same compound?
A: 64.6%

Q: What about the Activity [32] of the same compound?
A: 4.79%
